Our source for the inhibition, IC50 and Ratio IC50 values is ChEMBL document CHEMBL4219259, “Molecular Determinants Conferring the Stoichiometric-Dependent Activity of α-Conotoxins at the Human α9α10 Nicotinic Acetylcholine Receptor Subtype” (J Med Chem, 2018).

Peptide text beside a SMILES is read from it.

Assay [1] has as its target T1, Neuronal acetylcholine receptor; alpha9/alpha10 (Homo sapiens) (UniProt Q9UGM1+Q9GZZ6). Put plainly: Inhibition of human alpha9/alpha10 nACHR (3:2) expressed in Xenopus laevis oocyte assessed as inhibition of ACh induced channel current at 1 uM measured for 2 to 5 days at -80 mV holding potential by two electrode voltage clamp method.
Assay [2] concerns the target T1, Neuronal acetylcholine receptor; alpha9/alpha10 (Homo sapiens). Put plainly: Inhibition of human alpha9 N154G mutant/alpha10 nACHR (3:1) expressed in Xenopus laevis oocyte assessed as inhibition of ACh induced channel current at 1 uM measured for 2 to 5 days at -80 mV holding potential by two electrode voltage clamp method.
In assay [3] the target is T2, Neuronal acetylcholine receptor; alpha9/alpha10 (Homo sapiens, UniProt Q9GZZ6+Q9UGM1, N154G). Put plainly: Inhibition of human alpha9 N154G mutant/alpha10 nACHR (3:1) expressed in Xenopus laevis oocyte assessed as inhibition of ACh induced channel current measured for 2 to 5 days at -80 mV holding potential by two electrode voltage clamp method.
Assay [4] addresses Neuronal acetylcholine receptor; alpha9/alpha10 (Homo sapiens, UniProt Q9GZZ6+Q9UGM1, G154N). Put plainly: Inhibition of human alpha9/alpha10 G154N mutant nACHR (1:3) expressed in Xenopus laevis oocyte assessed as inhibition of ACh induced channel current measured for 2 to 5 days at -80 mV holding potential by two electrode voltage clamp method.
Assay [5] addresses T1, Neuronal acetylcholine receptor; alpha9/alpha10 (Homo sapiens). Put plainly: Inhibition of human alpha9/alpha10 nACHR (4:1) expressed in Xenopus laevis oocyte assessed as inhibition of ACh induced channel current at 1 uM measured for 2 to 5 days at -80 mV holding potential by two electrode voltage clamp method.
The target in assay [6] is T3, Neuronal acetylcholine receptor; alpha9/alpha10 (Homo sapiens, UniProt Q9GZZ6+Q9UGM1). Put plainly: Inhibition of human alpha9/alpha10 nACHR (3:1) expressed in Xenopus laevis oocyte assessed as inhibition of ACh induced channel current measured for 2 to 5 days at -80 mV holding potential by two electrode voltage clamp method.
Assay [7] has as its target T3, Neuronal acetylcholine receptor; alpha9/alpha10. Put plainly: Inhibition of human alpha9/alpha10 nACHR (1:1) expressed in Xenopus laevis oocyte assessed as inhibition of ACh induced channel current measured for 2 to 5 days at -80 mV holding potential by two electrode voltage clamp method.
For assay [8], the target named is T1, Neuronal acetylcholine receptor; alpha9/alpha10 (Homo sapiens). Put plainly: Inhibition of human alpha9/alpha10 nACHR (2:3) expressed in Xenopus laevis oocyte assessed as inhibition of ACh induced channel current at 1 uM measured for 2 to 5 days at -80 mV holding potential by two electrode voltage clamp method.
The target of assay [9] is T2, Neuronal acetylcholine receptor; alpha9/alpha10. Put plainly: Inhibition of human alpha9 N154G mutant/alpha10 nACHR (1:3) expressed in Xenopus laevis oocyte assessed as inhibition of ACh induced channel current measured for 2 to 5 days at -80 mV holding potential by two electrode voltage clamp method.
Assay [10] has as its target T3, Neuronal acetylcholine receptor; alpha9/alpha10. Put plainly: Inhibition of human alpha9/alpha10 nACHR (1:3) expressed in Xenopus laevis oocyte assessed as inhibition of ACh induced channel current measured for 2 to 5 days at -80 mV holding potential by two electrode voltage clamp method.
For assay [11], the species on record is Homo sapiens. Put plainly: Ratio of IC50 for human alpha9/alpha10 nACHR (3:1) to IC50 for human alpha9 N154G mutant/alpha10 nACHR (3:1).
The species entered for assay [12] is Homo sapiens. Put plainly: Ratio of IC50 for human alpha9/alpha10 nACHR (1:3) to IC50 for human alpha9 N154G mutant/alpha10 nACHR (1:3).
Assay [13] addresses T1, Neuronal acetylcholine receptor; alpha9/alpha10 (Homo sapiens). Put plainly: Inhibition of human alpha9 N154G mutant/alpha10 nACHR (1:3) expressed in Xenopus laevis oocyte assessed as inhibition of ACh induced channel current at 1 uM measured for 2 to 5 days at -80 mV holding potential by two electrode voltage clamp method.

T3 sequence (Q9UGM1 whole entry): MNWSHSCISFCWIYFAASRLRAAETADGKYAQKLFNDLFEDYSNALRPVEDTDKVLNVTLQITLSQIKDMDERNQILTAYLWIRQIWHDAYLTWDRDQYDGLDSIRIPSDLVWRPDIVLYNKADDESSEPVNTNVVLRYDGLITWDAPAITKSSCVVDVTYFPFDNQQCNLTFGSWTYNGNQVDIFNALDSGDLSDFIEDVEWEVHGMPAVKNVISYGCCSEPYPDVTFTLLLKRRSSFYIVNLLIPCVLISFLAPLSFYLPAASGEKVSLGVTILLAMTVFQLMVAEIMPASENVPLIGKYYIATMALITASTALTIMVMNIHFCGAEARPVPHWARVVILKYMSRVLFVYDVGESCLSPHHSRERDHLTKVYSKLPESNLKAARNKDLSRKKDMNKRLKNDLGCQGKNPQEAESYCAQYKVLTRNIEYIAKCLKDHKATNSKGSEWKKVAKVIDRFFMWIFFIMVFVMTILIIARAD
T3 sequence (Q9GZZ6 whole entry): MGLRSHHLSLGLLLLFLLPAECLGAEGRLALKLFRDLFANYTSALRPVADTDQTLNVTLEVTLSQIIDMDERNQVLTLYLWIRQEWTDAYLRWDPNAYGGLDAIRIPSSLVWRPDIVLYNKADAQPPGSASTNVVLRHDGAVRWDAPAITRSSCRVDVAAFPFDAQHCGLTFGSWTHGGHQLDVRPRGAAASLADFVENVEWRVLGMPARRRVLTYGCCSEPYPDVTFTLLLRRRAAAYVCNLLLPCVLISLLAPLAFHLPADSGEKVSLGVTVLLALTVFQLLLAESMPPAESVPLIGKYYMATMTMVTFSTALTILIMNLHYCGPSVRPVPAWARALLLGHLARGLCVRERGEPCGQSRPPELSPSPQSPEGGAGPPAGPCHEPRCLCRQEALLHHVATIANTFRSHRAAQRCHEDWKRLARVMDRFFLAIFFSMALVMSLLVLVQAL
T2 sequence (Q9GZZ6 whole entry, looked up, stated change not applied): as the sequence (Q9GZZ6 whole entry) above
T2 sequence (Q9UGM1 whole entry, looked up, stated change not applied): as the sequence (Q9UGM1 whole entry) above
Sequence of Neuronal acetylcholine receptor; alpha9/alpha10 (Homo sapiens, UniProt Q9GZZ6+Q9UGM1, G154N) (Q9GZZ6 whole entry, looked up, stated change not applied): as the sequence (Q9GZZ6 whole entry) above
Sequence of Neuronal acetylcholine receptor; alpha9/alpha10 (Homo sapiens, UniProt Q9GZZ6+Q9UGM1, G154N) (Q9UGM1 whole entry, looked up, stated change not applied): as the sequence (Q9UGM1 whole entry) above

As to `CC[C@H](C)[C@@H]1NC(=O)[C@H](CCC(=O)O)NC(=O)[C@@H]2CCCN2C(=O)[C@H](Cc2ncc[nH]2)NC(=O)[C@H](CC(=O)O)NC(=O)[C@H](Cc2ccc(O)cc2)NC(=O)[C@H](CC(N)=O)NC(=O)[C@@H]2CSSC[C@H](NC(=O)CN)C(=O)N[C@@H](CSSC[C@@H](C(N)=O)NC1=O)C(=O)N[C@@H](CO)C(=O)N[C@@H](CC(=O)O)C(=O)N1CCC[C@H]1C(=O)N[C@@H](CCCNC(=N)N)C(=O)N2` (HELM PEPTIDE1{G.C.C.S.D.P.R.C.N.Y.D.[O=C([C@H](Cc1ncc[nH]1)N[*:1])[*:2]].P.E.I.C.[am]}$PEPTIDE1,PEPTIDE1,2:R3-8:R3|PEPTIDE1,PEPTIDE1,3:R3-16:R3$$$V2.0), the inhibition in assay [1] is 65.8%; in assay [2] it was 21.8%; in [5], 65.8%; in assay [8], 25.5%; in assay [13], 19.5%. For the same compound, the IC50 in assay [3] was determined as 17 µM; in [4], 0.75 µM; in assay [6], 0.75 µM; in assay [7], 1 µM; in assay [9], 11.3 µM; in [10], 3.57 µM. Also, the results for the Ratio IC50 in the assay listed under Homo sapiens [11] and in the assay listed under Homo sapiens [12] were 23 and 3, respectively.

Consider `CC[C@H](C)[C@@H]1NC(=O)[C@H](CC(N)=O)NC(=O)[C@@H]2CCCN2C(=O)[C@H](Cc2ncc[nH]2)NC(=O)[C@H](CC(=O)O)NC(=O)[C@H](Cc2ccc(O)cc2)NC(=O)[C@H](CC(N)=O)NC(=O)[C@@H]2CSSC[C@H](NC(=O)CN)C(=O)N[C@@H](CSSC[C@@H](C(N)=O)NC1=O)C(=O)N[C@@H](CO)C(=O)N[C@@H](CC(=O)O)C(=O)N1CCC[C@H]1C(=O)N[C@@H](CCCNC(=N)N)C(=O)N2` (HELM PEPTIDE1{G.C.C.S.D.P.R.C.N.Y.D.[O=C([C@H](Cc1ncc[nH]1)N[*:1])[*:2]].P.N.I.C.[am]}$PEPTIDE1,PEPTIDE1,2:R3-8:R3|PEPTIDE1,PEPTIDE1,3:R3-16:R3$$$V2.0), for which the IC50 is 8.59 µM in assay [3], 10.8 µM in assay [6], 10.2 µM in assay [9] and 17.5 µM in [10].

Consider `N=C(N)NCCC[C@@H]1NC(=O)[C@H](Cc2ccc(O)cc2)NC(=O)[C@H](CCCNC(=N)N)NC(=O)[C@@H]2CSSC[C@H](NC(=O)CN)C(=O)N[C@@H](CSSC[C@@H](C(N)=O)NC1=O)C(=O)N[C@@H](CO)C(=O)N[C@@H](CC(=O)O)C(=O)N1CCC[C@H]1C(=O)N[C@@H](CCCNC(=N)N)C(=O)N2` (HELM PEPTIDE1{G.C.C.S.D.P.R.C.R.Y.R.C.[am]}$PEPTIDE1,PEPTIDE1,2:R3-8:R3|PEPTIDE1,PEPTIDE1,3:R3-12:R3$$$V2.0), for which the IC50 in [7] stood at 249 µM.

Take `CC(C)[C@@H]1NC(=O)[C@H](CO)NC(=O)[C@@H]2CSSC[C@H](NC(=O)CN)C(=O)N[C@@H](CSSC[C@@H](C(N)=O)NC(=O)[C@H](CCCCN)NC(=O)[C@H](CC(N)=O)NC(=O)[C@@H]3CCCN3C(=O)[C@H](Cc3ncc[nH]3)NC(=O)[C@H](CC(=O)O)NC1=O)C(=O)N[C@@H](CO)C(=O)N[C@@H](CC(=O)O)C(=O)N1CCC[C@H]1C(=O)N[C@@H](CCCNC(=N)N)C(=O)N2` (HELM PEPTIDE1{G.C.C.S.D.P.R.C.S.V.D.[O=C([C@H](Cc1ncc[nH]1)N[*:1])[*:2]].P.N.K.C.[am]}$PEPTIDE1,PEPTIDE1,2:R3-8:R3|PEPTIDE1,PEPTIDE1,3:R3-16:R3$$$V2.0): the IC50 in assay [3] was 15.2 µM; in [6] it was 9.3 µM; in [9] it was 13 µM; in assay [10], 13.2 µM.
